Measured values: patent publication US20150258059A1, “ANTIMICROBIAL AND RADIOPROTECTIVE COMPOUNDS” (BioDiem, Ltd, priority 2001, published 2015)
In brackets after ≈: the same amount, converted by molar mass. Where two headings read alike, the source gives them in different places. Marks after values point to notes of the source that are not given here.

Tests used:
[1] = test system: clinical isolate of Trichomonas vaginalis; assay: microbe, parasite or virus in culture; format: cell-based
Bacillus subtilis [2] = assay: Stability of stock solutions on storage, potency by MIC/MBC; format: cell-based
[3] = test system: Torula histolytica (Cryptococcus); assay: Sensitivity of pathogenic fungi; format: cell-based; settings: Inoculation 10^5
[4] = test system: Shigella flexneri M-2A6907; assay: Sensitivity of strains: suppression of growth; format: cell-based; settings: Compound (1) 1.0%; antibiotics disc method
Salmonella typhimurium = assay: Agar plug diffusion, zone of retardation; settings: plug impregnated at 0.5%
[5] = test system: Salmonella typhimurium M-727; assay: Sensitivity of strains: suppression of growth; format: cell-based; settings: Compound (1) 1.0%; antibiotics disc method
Candida albicans [6] = assay: NCCLS broth macro-dilution MIC/MFC (RPMI); format: cell-based; settings: Table 10, 4 day, 30° C.
Pseudoallescheria boydii = assay: M38-P microdilution MIC/MFC; format: cell-based; settings: Table 16, Dematiaceous fungi
Rhodotorula rubra = assay: microbe, parasite or virus in culture; format: cell-based; settings: for MIC: Rhodotorula
E. coli = assay: MIC by solvent of formulation; settings: for MIC: Escherichia coli
Mycobact tub. H.37RV = assay: Anti-TB effect, serial double dilution in liquid medium; format: cell-based, M tuberculosis; settings: read-out: Minimal Inhibitory Concentration
Candida albicans [7] = assay: microbe, parasite or virus in culture; format: cell-based; settings: for MIC: Candida albicans
Klebsiella pneumoniae = assay: Agar plug diffusion, zone of retardation; settings: plug impregnated at 0.5%
Pseudomonas = assay: Agar plug diffusion, zone of retardation; format: cell-based, Pseudonomas aeruginosa; settings: plug impregnated at 0.5%
Bacteroides fragilis = assay: NCCLS broth microdilution MIC/MBC; format: cell-based; settings: for MIC: Bacteroides fragilis
S. pyogenes = assay: Broth dilution bioassay, low inoculum; format: cell-based; settings: in MHB
Acinetobacter B-681 = assay: Sensitivity of strains: suppression of growth; format: cell-based; settings: Compound (1) 1.0%; antibiotics disc method
[8] = test system: Salmonella intraperitoneally; assay: Anti-bacterial activity in vivo, infected mice; settings: schedule −1, 0, +1, +2, +3; 200 mg/kg intrmuscularly
Enterococcus faecalis = assay: Rate of kill, viable counts; settings: 512 μg/mL; at 9 h
[9] = test system: Corynebacterium xerosis RMIT; assay: NCCLS broth microdilution MIC/MBC; format: cell-based; settings: for MIC: Corynebacterium xerosis
Candida albicans [10] = assay: Impregnated agar serial double dilutions; settings: meat peptone agar
[11] = test system: Salmonella typhimurium M-727; assay: Agar diffusion assay
Microsporum gypseum = assay: M38-P microdilution MIC/MFC; format: cell-based; settings: Table 16, Dermatophytes
Paecilomyces variotii = assay: M38-P microdilution MIC/MFC; format: cell-based; settings: Table 16, 48 h, 35° C.
[12] = test system: Neisseria meningitidis M-A72; assay: Sensitivity of strains: suppression of growth; format: cell-based; settings: Compound (1) 1.0%; antibiotics disc method
Bacillus subtilis [13] = assay: Rate of kill, viable counts; settings: in 2 h
[14] = stock 512 μg/mL stored 4° C., 0 weeks
[15] = stock 512 μg/mL stored 4° C., 2 weeks
[16] = stock 512 μg/mL stored 4° C., 4 weeks
[17] = stock 512 μg/mL stored 4° C., 6 weeks
[18] = stock 512 μg/mL stored 4° C., 8 weeks
[19] = stock 512 μg/mL stored 4° C., 10 weeks
[20] = stock 512 μg/mL stored 4° C., 12 weeks
[21] = stock 512 μg/mL stored RT, 0 weeks
[22] = stock 512 μg/mL stored RT, 2 weeks
[23] = stock 512 μg/mL stored RT, 4 weeks
[24] = stock 512 μg/mL stored RT, 6 weeks
[25] = stock 512 μg/mL stored RT, 8 weeks
[26] = stock 512 μg/mL stored RT, 10 weeks
[27] = stock 512 μg/mL stored RT, 12 weeks
[28] = stock 512 μg/mL stored −20° C., 0 weeks
[29] = stock 512 μg/mL stored −20° C., 2 weeks
[30] = stock 512 μg/mL stored −20° C., 4 weeks
[31] = stock 512 μg/mL stored −20° C., 6 weeks
[32] = stock 512 μg/mL stored −20° C., 8 weeks
[33] = stock 512 μg/mL stored −20° C., 10 weeks
[34] = stock 512 μg/mL stored −20° C., 12 weeks
[35] = before exposure, MHB, read-out: Standard MIC Initial

Structure (SMILES): C/C(=C\c1ccc2c(c1)OCO2)[N+](=O)[O-] [Compound (1)]
- MMC [1]: 4 µg/mL
- MIC ([1]; Trichomonas vaginalis, 24 h): 4 µg/mL (≈ 19.3 µM)
- stability of dilute solutions on storage (Bacillus subtilis [2]; 12 weeks at 4° C. and −20° C.): very stable
- MBC (Bacillus subtilis [2]; [14]): 8 µg/mL (≈ 38.6 µM)
- MIC (Bacillus subtilis [2]; [14]): 4 µg/mL (≈ 19.3 µM)
- MBC (Bacillus subtilis [2]; [15]): 8 µg/mL (≈ 38.6 µM)
- MIC (Bacillus subtilis [2]; [15]): 4 µg/mL (≈ 19.3 µM)
- MBC (Bacillus subtilis [2]; [16]): 16 µg/mL (≈ 77.2 µM)
- MIC (Bacillus subtilis [2]; [16]): 4 µg/mL (≈ 19.3 µM)
- MBC (Bacillus subtilis [2]; [17]): 16 µg/mL (≈ 77.2 µM)
- MIC (Bacillus subtilis [2]; [17]): 4 µg/mL (≈ 19.3 µM)
- MBC (Bacillus subtilis [2]; [18]): 16 µg/mL (≈ 77.2 µM)
- MIC (Bacillus subtilis [2]; [18]): 4 µg/mL (≈ 19.3 µM)
- MBC (Bacillus subtilis [2]; [19]): 16 µg/mL (≈ 77.2 µM)
- MIC (Bacillus subtilis [2]; [19]): 4 µg/mL (≈ 19.3 µM)
- MBC (Bacillus subtilis [2]; [20]): 16 µg/mL (≈ 77.2 µM)
- MIC (Bacillus subtilis [2]; [20]): 4 µg/mL (≈ 19.3 µM)
- MBC (Bacillus subtilis [2]; [21]): 8 µg/mL (≈ 38.6 µM)
- MIC (Bacillus subtilis [2]; [21]): 4 µg/mL (≈ 19.3 µM)
- MBC (Bacillus subtilis [2]; [22]): 8 µg/mL (≈ 38.6 µM)
- MIC (Bacillus subtilis [2]; [22]): 4 µg/mL (≈ 19.3 µM)
- MBC (Bacillus subtilis [2]; [23]): 8 µg/mL (≈ 38.6 µM)
- MIC (Bacillus subtilis [2]; [23]): 4 µg/mL (≈ 19.3 µM)
- MBC (Bacillus subtilis [2]; [24]): 16 µg/mL (≈ 77.2 µM)
- MIC (Bacillus subtilis [2]; [24]): 4 µg/mL (≈ 19.3 µM)
- MBC (Bacillus subtilis [2]; [25]): 16 µg/mL (≈ 77.2 µM)
- MIC (Bacillus subtilis [2]; [25]): 8 µg/mL (≈ 38.6 µM)
- MBC (Bacillus subtilis [2]; [26]): 16 µg/mL (≈ 77.2 µM)
- MIC (Bacillus subtilis [2]; [26]): 8 µg/mL (≈ 38.6 µM)
- MBC (Bacillus subtilis [2]; [27]): 16 µg/mL (≈ 77.2 µM)
- MIC (Bacillus subtilis [2]; [27]): 8 µg/mL (≈ 38.6 µM)
- MBC (Bacillus subtilis [2]; [28]): 8 µg/mL (≈ 38.6 µM)
- MIC (Bacillus subtilis [2]; [28]): 4 µg/mL (≈ 19.3 µM)
- MBC (Bacillus subtilis [2]; [29]): 8 µg/mL (≈ 38.6 µM)
- MIC (Bacillus subtilis [2]; [29]): 4 µg/mL (≈ 19.3 µM)
- MBC (Bacillus subtilis [2]; [30]): 16 µg/mL (≈ 77.2 µM)
- MIC (Bacillus subtilis [2]; [30]): 4 µg/mL (≈ 19.3 µM)
- MBC (Bacillus subtilis [2]; [31]): 16 µg/mL (≈ 77.2 µM)
- MIC (Bacillus subtilis [2]; [31]): 4 µg/mL (≈ 19.3 µM)
- MBC (Bacillus subtilis [2]; [32]): 16 µg/mL (≈ 77.2 µM)
- MIC (Bacillus subtilis [2]; [32]): 4 µg/mL (≈ 19.3 µM)
- MBC (Bacillus subtilis [2]; [33]): 16 µg/mL (≈ 77.2 µM)
- MIC (Bacillus subtilis [2]; [33]): 4 µg/mL (≈ 19.3 µM)
- MBC (Bacillus subtilis [2]; [34]): 16 µg/mL (≈ 77.2 µM)
- MIC (Bacillus subtilis [2]; [34]): 4 µg/mL (≈ 19.3 µM)
- Number of microbes: Growth ([3]; 0.1%): 0
- Number of microbes: Retardation ([3]; 0.1%): 10^5
- Number of microbes: Growth ([3]; 0.5%): 0
- Number of microbes: Retardation ([3]; 0.5%): 10^5
- Number of microbes: Growth ([3]; 2.0%): 0
- Number of microbes: Retardation ([3]; 2.0%): 10^5
- Suppression of Growth (+/−) [4]: +
- Size of zone of retardation of the growth (Salmonella typhimurium): 7
- Suppression of Growth (+/−) [5]: +
- MIC (Candida albicans [6]; Candida albicans, 96 h): 8 µg/mL (≈ 38.6 µM)
- MMC (Candida albicans [6]): 8 µg/mL
- MMC (Pseudoallescheria boydii): 4 µg/mL
- MIC (Pseudoallescheria boydii; read-out: MIC): 2 µg/mL (≈ 9.65 µM)
- MIC (Rhodotorula rubra; Table 20, […], after 12 weeks continuous exposure, read-out: MIC Final): 16 µg/mL (≈ 77.2 µM)
- MIC (Rhodotorula rubra; Table 20, […], parent strain, read-out: MIC Initial): 8 µg/mL (≈ 38.6 µM)
- MIC (Rhodotorula rubra; [35]): 8 µg/mL (≈ 38.6 µM)
- 7-Day MIC Range (Rhodotorula rubra; to Wk 5): 8-32 to Wk 5 μg/mL
- times more active in ethanol than in DMSO (E. coli): at least 8 times
- MIC (E. coli; 2.5% DMSO): > 512 µg/mL
- MIC (E. coli; formulated in ethanol (0.06% ETON)): 128 µg/mL (≈ 618 µM)
- MIC (Mycobact tub. H.37RV): 6.25 µg/mL (≈ 30.2 µM)
- MIC (Candida albicans [7]; after 12 weeks continuous exposure, read-out: Standard MIC Final): 4 µg/mL (≈ 19.3 µM)
- MIC (Candida albicans [7]; [35]): 4 µg/mL (≈ 19.3 µM)
- 7-Day MIC Range (Candida albicans [7]; Range to Week 12, No Rising Trend): 16 to 64 µg/mL
- Size of zone of retardation of the growth (Klebsiella pneumoniae): 5
- Size of zone of retardation of the growth (Pseudomonas): 0
- MIC (Bacteroides fragilis; Table 9, 48 h): 16 µg/mL (≈ 77.2 µM)
- MIC (Bacteroides fragilis; Table 17, 2 or 3 replicates): 16 µg/mL (≈ 77.2 µM)
- MMC (Bacteroides fragilis; Table 9, 48 h): 32 µg/mL
- MMC (Bacteroides fragilis; Table 17, 2 or 3 replicates): 32 µg/mL
- concentration inhibiting low inoculum (S. pyogenes): 1 µg/mL
- Suppression of Growth (+/−) (Acinetobacter B-681): +
- Cumulative mortality (test) [8]: 47
- Incubation period days (test) [8]: 0 days
- Log reduction in viable count (Enterococcus faecalis): 0.6 at 9 h
- MIC ([9]; Table 9, 35° C., 24 hours): 32.2 µg/mL (≈ 155 µM)
- MIC ([9]; Table 17, 2 or 3 replicates): 32 µg/mL (≈ 154 µM)
- MMC ([9]; Table 9, 35° C., 24 hours): 32.16 µg/mL
- MMC ([9]; Table 17, 2 or 3 replicates): 32 µg/mL
- Minimal % Compound (1) giving complete inhibition of test culture (Candida albicans [10]): 0.5%
- Diameter of zone of Growth inhibition ([11]; Concentration in disc 0.1%): 24# mm
- Diameter of zone of Growth inhibition ([11]; Concentration in disc 1.0%): 30# mm
- Diameter of zone of Growth inhibition ([11]; Concentration in disc 2.0%): 32# mm
- MIC (Microsporum gypseum; Nannizzia gypsea): 1 µg/mL (≈ 4.83 µM)
- MMC (Microsporum gypseum): 8 µg/mL
- MIC (Paecilomyces variotii; Paecilomyces variotii, read-out: MIC): 1 µg/mL (≈ 4.83 µM)
- MMC (Paecilomyces variotii): 2 µg/mL
- Suppression of Growth (+/−) [12]: +
- Log reduction in viable count (Bacillus subtilis [13]; 256 μg/mL): 3.8 in 2 h
- Log reduction in viable count (Bacillus subtilis [13]; 512 μg/mL): 4 in 2 h
